Tests used:
[1] = test system: IGF1R; test: IGF1R expression in UC101 ovarian cancer cells treated with 18mer ASOs; format: cell-based, human
Experimental: The human and murine cell lines used in this study were cultured in RPMI 1640 plus 10% FCS at 37° C. in a humidified atmosphere of 5% CO2. The cultures were negative when tested for Mycoplasma infection. Cultures were passaged the day before transfection to achieve 30-50% confluence the following day. Initial transfections of ASOs used 1-2.5 μg/ml Cytofectin (Glen Research, Sterling, Va.), according to the manufacturer's instructions. Latterly Oligofectamine (Life Sciences) has been used for all ASO and RNAi transfections. The method was as described (see manufacturer's instructions and www.dharmacon.com) with minor modifications. For transfection of monolayers seeded in 6 well plates, 5 μl phosphorothioate oligonucleotide or RNA duplex at 100× final concentration were mixed with 2501 serum-free Optimem (Gibco-BRL). In a separate tube 2 μl Oligofectamine was mixed with 68 μl Optimem. After 10 min incubation at room temperature the contents of the two tubes were mixed and incubated for a further 25 min at room temperature. Monolayers were washed with 1-2 ml Optimem. To the cells were added 175 μl Optimem followed by the 325 μl complexes. […] After 48 hr incubation effects on IGF1R and IR expression were determined by immunoblotting. […]
IGF1R expression was assessed by immunoblotting as previously described (Macaulay et al 2001). […] Lysates were centrifuged for 15 minutes at 14,000 g, the protein concentration of supernatants was measured using BCA assay reagent (Pierce), and equivalent amounts of protein were separated on 7.5% SDS-PAGE gels and transferred to nitrocellulose. Target protein levels were assessed using antibodies to the β-subunit of the IGF1R or IR (Santa Cruz), phospho-Ser 473 Akt or total Akt (Cell Signalling, New England Biolabs) or β-tubulin (Sigma). Activated IGF1R was detected by immunoprecipitation for phosphotyrosine (P-Tyr-100, Cell Signaling Technology). Primary antibodies were detected with HRP-conjugated secondary antibodies (Dako), and ECL Plus (Amersham Pharmacia). […]

[2] = test system: IGF1R mRNA; test: Oligonucleotide scanning array hybridisation with labelled transcript; format: binding, human; conditions: for Rel hyb intensity: relative to the most strongly hybridising sequence on the array; for Hyb intensity: scanning array probed with labelled IGF1R mRNA
Experimental: Scanning arrays complementary to the region of the IGF1R mRNA from position 537-685 were prepared using the standard techniques described in Southern E. M. et al., Nucleic Acids Res., 1994, 22(8): 1368-1373; and Sohail, M. and Southern, E. M. “Using oligonucleotide scanning arrays to find effective antisense reagents”, Methods in Molecular Biology, vol. 170: DNA Arrays: Methods and Protocols, Ed J. B. Rampal, Humana Press Inc., Totowa, N.J.
The scanning arrays comprise sets of oligonucleotides of various lengths. A series of oligonucleotides, complementary to the target mRNA, is made by sequential coupling of nucleotides to a solid surface. The DNA synthesis reagents are applied to a confined area on the surface of the solid support using a mask. The mask is shifted along the surface after each round of coupling, resulting in a series of oligonucleotides each complementary to a region of the target sequence.
• 2. Remove 1 μL for quantitation (see below). • 3. Remove unincorporated label by Sephadex® G25 column chromatography (see Note 11). • 4. Save 1 μL of the purified transcript for quantitation (see below). • 5. Check the integrity of the transcript by denaturing polyacrylamide gel electrophoresis (10). • 6. Add 10 μL of the scintillation fluid to the samples saved in Steps 2 and 4. • 7. Mix by vortexing and count the samples in a scintillation counter for 1 min. • 8. Calculate the percent incorporation: [formula] • 9. Calculate the amount of RNA made: [formula] Hybridisation to Arrays Made on Polypropylene • 1. Place the array in the hybridisation tube, coiling it in a spiral. • 2. Dilute the radiolabelled transcript in an appropriate volume (10-20 mL depending upon the size of the array and the hybridisation tube) of hybridisation buffer. The mix should cover the array along the length of the tube. • 3. Place items 1 and 2 in the oven at desired temperature for 30 min. Also put approximately 100 mL of the hybridisation buffer in the oven: this is to be used to wash the array at the end of hybridisation. • 4. Pour the hybridisation mix into the tube containing the array and hybridise for 3-4 h. • 5. Remove the hybridisation mix. Briefly wash the array with the hybridisation buffer from Step 3, air dry, cover with cling film and expose to a storage phosphor screen for 16-20 h (see Note 12). • 6. Scan the screen on PhosphorImager or STORM and analyse the image using xvseq (see below). Hybridisation to Arrays Made on Glass • 1. Clean the non-array glass plate with acetone and ethanol to ensure it is grease-free and siliconise it by treatment with dimethyl dichlorosilane solution and place it in lidded box. Also place moist paper towel in the box. • 2. Dilute the radiolabelled transcript in an appropriate volume of the hybridisation buffer (for example, for an array of 250 mm×50 mm use 500-750 μL). • 3. Place items 1 and 2 in an incubator at desired temprature for 30 min. Also put approximately 100 mL of the hybridisation buffer in the oven: this is to be used to wash the array at the end of hybridisation. • 4. Using a micropipette, pipette the hybridisation mix in a line evenly along the length of the non-array glass plate, avoiding formation of air bubbles. • 5. Starting at one end, carefully place the scanning array (face down) on top of the hybridisation mix. The mix will spread out and form a thin film between the two plates. Incubate for 3-4 h. • 6. Separate the plates from each other and wash the array plate with hybridisation buffer to remove unbound mix. Drain the plate, air dry, cover with cling film and expose to a storage phosphor screen for 16-20 h. • 7. Scan the screen on PhosphorImager or STORM and analyse the image using xvseq (see below). Alternative Hybridisation Protocol for Glass or Polypropylene • 1. Assemble with clips the array plate (or polypropylene array pasted with PhotoMount™ on a glass plate) and the non-array plate, using rubber tubing as spacers on two sides. • 2. […]

[3] = test system: IR; test: IR level by immunoblotting in transfected MDA-231 cells; format: cell-based, human
Experimental: (§1) The human and murine cell lines used in this study were cultured in RPMI 1640 plus 10% FCS at 37° C. in a humidified atmosphere of 5% CO2. The cultures were negative when tested for Mycoplasma infection. Cultures were passaged the day before transfection to achieve 30-50% confluence the following day. Initial transfections of ASOs used 1-2.5 μg/ml Cytofectin (Glen Research, Sterling, Va.), according to the manufacturer's instructions. Latterly Oligofectamine (Life Sciences) has been used for all ASO and RNAi transfections. The method was as described (see manufacturer's instructions and www.dharmacon.com) with minor modifications. For transfection of monolayers seeded in 6 well plates, 5 μl phosphorothioate oligonucleotide or RNA duplex at 100× final concentration were mixed with 2501 serum-free Optimem (Gibco-BRL). In a separate tube 2 μl Oligofectamine was mixed with 68 μl Optimem. After 10 min incubation at room temperature the contents of the two tubes were mixed and incubated for a further 25 min at room temperature. Monolayers were washed with 1-2 ml Optimem. To the cells were added 175 μl Optimem followed by the 325 μl complexes. Volumes were scaled up by factors of 2.22 or 6.05 for transfection in 60 mm or 100 mm dishes respectively. Cultures were incubated at 37° C. for 4 hr, and then 50 μl FCS and 3.5 ml RPMI plus 5% FCS were added to each well. After 48 hr incubation effects on IGF1R and IR expression were determined by immunoblotting. Some transfected cultures were serum-starved overnight, divided into two aliquots and treated with 10 nM Long R3-IGF-I (GroPep, Adelaide) or diluent for 30 min at 37° C. prior to lysis.
(§2) IGF1R expression was assessed by immunoblotting as previously described (Macaulay et al 2001). After washing in ice-cold PBS, cells were lysed in 50 mM Hepes pH 7.5, 100 mM NaCl, 10 mM EDTA, 1% Triton-X-100, 4 mM sodium pyrophosphate, 2 mM sodium orthovanadate, 10 mM sodium fluoride, 1 mM PMSF, 2 μg/ml each leupeptin and aprotinin. Lysates were centrifuged for 15 minutes at 14,000 g, the protein concentration of supernatants was measured using BCA assay reagent (Pierce), and equivalent amounts of protein were separated on 7.5% SDS-PAGE gels and transferred to nitrocellulose. Target protein levels were assessed using antibodies to the β-subunit of the IGF1R or IR (Santa Cruz), phospho-Ser 473 Akt or total Akt (Cell Signalling, New England Biolabs) or β-tubulin (Sigma). Activated IGF1R was detected by immunoprecipitation for phosphotyrosine (P-Tyr-100, Cell Signaling Technology). Primary antibodies were detected with HRP-conjugated secondary antibodies (Dako), and ECL Plus (Amersham Pharmacia).
(§3) The ASOs and RNAi duplexes were transfected into MDA-231 cells (human ER negative breast cancer) using Cytofectin or Oligofectamine, as described above. After 48 hr the cells were lysed, and IGF1R and IR levels were measured by immunoblotting. The intensity of the autoradiographic bands was quantified by densitometry, and IGF1R (or IR) levels were corrected for loading differences. The specific IGF1R or IR results are presented as % IGF1R (or IR) level of that in cells transfected with the same concentration of an appropriate control. This was a scrambled control oligonucleotide for ASOs, and an inverted RNA duplex for RNAi.

[4] = test system: IGF1R; test: IGF1R level by immunoblotting in transfected MDA-231 cells; format: cell-based, human; conditions: MDA-231 cells, 300 nM ASO, 48 hr, vs scrambled control
Experimental: as §1, §2, §3

[5] = test system: UC101 human ovarian cancer cells; test: Tumorigenicity of UC101 ovarian cancer cells transfected with siRNA (xenografts); format: in vivo, female athymic (nu/nu mice); conditions: UC101 cells transfected with 200 nM siRNA, nu/nu mice
Experimental: UC101 ovarian cancer cells were transfected with 200 nM siRNA, mixed with irradiated NIH-3T3 cells and inoculated into the flanks of female athymic (nu/nu mice).
Tumorigenicity testing was conducted using UC101 human ovarian cancer cells transfected with 200 nM siRNA. After 48 hr the cells were inoculated into the flanks of female athymic (nu/nu mice), using 5×10^6 tumour cells mixed with 5×10^6 irradiated NIH-3T3 cells per mouse. Tumours were measured and volumes calculated as described (Macaulay et al., Oncogene 20: 2029-40, 2001). All procedures were performed in accordance with the Home Office Scientific Procedures Act 1986, and with the approval of the Animal Ethics Committee of Cancer Research UK.

[6] = test system: MDA-MB-231 cells; test: Clonogenic survival and post-irradiation survival (SF2) of transfected MDA-MB-231 cells; format: cell-based, human; conditions: MDA-MB-231, 100 nM, unirradiated
Experimental: FIG. 7 A) MDA-MB-231 cells transfected with 100 nM RNA duplexes were serum-starved overnight and treated with 50 nM IGF-I for 30 min. […] Results represent mean±sem of colony counts in triplicate dishes. Similar results were obtained in two further clonogenic assays. • C) Clonogenic survival of transfected MDA-MB-231 cells that were unirradiated or irradiated at 2Gy. The fraction surviving 2Gy irradiation (SF2) is shown as mean±sem of three independent assays.
The effect of transfection with 100 nM ASO4 or siRNA duplexes R4 and R5, equivalent to strongly and weakly hybridizing ASOs respectively, on colony forming efficiency and post-irradiation survival was also evaluated. […] This in turn illustrates the utility of hybridisation to the scanning ASO array in the selection of siRNA reagents, since relative hybridisation to the array is found to be predictive of activity in RNA interference and biological efficacy.

[7] = test system: IGF1R; test: IGF1R levels by immunoblotting in human tumour cell lines transfected with RNAi duplexes; format: cell-based; conditions: human ovarian (UC101) and prostate (DU145) cancer cells, 10 nM
Experimental: as §1
as §2, with “Pharmacia). […]” for “Pharmacia).”
Tumour cells were transfected with 10 nM duplexes and IGF1R levels were measured after 48 hr. After correction for loading differences IGF1R levels in cells transfected with RNAi were expressed as % of levels in cells transfected with equivalent inverted control duplex.

Substance	IGF1R expression, % of levels in cells treated with scrambled control [1]	Rel hyb intensity [2]	Hyb intensity [2]	Hybridisation to IGF1R mRNA on scanning array ([2]; 37° C. (and 23° C.))	IR Protein Level (% control) ([3]; 300 nM ASO, 48 hr, vs scrambled control)	IGF1R Protein Level (% control) [4]	Tumour development [5]	Clonogenic survival [6]	IGF1R downregulation, R4 compared with R5 [7]	IR downregulation ([3]; TSS ASO at 300 nM)
ASO2/18mer: phosphorothioate antisense oligonucleotide GGTCTTCTCACACATCGG, SEQ ID NO:6 (DNA, all phosphorothioate, methylation of C not given here)	39% of levels in cells treated with Scr2	1.00	56,026							
ASO6: phosphorothioate antisense oligonucleotide CTTATTCCCCACAATGTA, SEQ ID NO:17; poorly hybridising comparison (DNA, all phosphorothioate, methylation of C not given here)	98% of levels in cells treated with Scr6	0.01	560	hybridises poorly	100 % control	˜150 % control				
R5: RNAi duplex UGAGUACAACUACCGCUGCTT / TTACUCAUGUUGAUGGCGACG, SEQ ID NO:32 (UGAGUACAACUACCGCUGCNN; second strand not cited, chemistry not fully specified)							rapidly growing tumours	inhibited survival	induced IGF1R downregulation	
TSS ASO: ASO TCCTCCGGAGCCAGACTT, SEQ ID NO:21, complementary to human IGF1R translation initiation site, identical to that described by Baserga et al. (DNA, all phosphorothioate, methylation of C not given here) [reference compound]	33% of levels in cells treated with									detectable reduction in IR levels

Reference: patent US20050255493A1, “Molecular targeting of the IGF-1 receptor” (priority 2002, published 2005)
